Measurements from patent US10787432B2, “N-[(pyridyloxy)propanyl]benzamides” (Boehringer Ingelheim International GmbH, priority 2016, dated 2020).

Molecular target: T1, human orexin 2 receptor (Homo sapiens, UniProt O43614)
T1 construct: stably expressing the full-length human orexin 2 receptor; expressed in transfected cells; host or cells: CHO-K1 (CHO-K1/hOX2), co-expressing aequorin
T1 sequence (O43614 1-444): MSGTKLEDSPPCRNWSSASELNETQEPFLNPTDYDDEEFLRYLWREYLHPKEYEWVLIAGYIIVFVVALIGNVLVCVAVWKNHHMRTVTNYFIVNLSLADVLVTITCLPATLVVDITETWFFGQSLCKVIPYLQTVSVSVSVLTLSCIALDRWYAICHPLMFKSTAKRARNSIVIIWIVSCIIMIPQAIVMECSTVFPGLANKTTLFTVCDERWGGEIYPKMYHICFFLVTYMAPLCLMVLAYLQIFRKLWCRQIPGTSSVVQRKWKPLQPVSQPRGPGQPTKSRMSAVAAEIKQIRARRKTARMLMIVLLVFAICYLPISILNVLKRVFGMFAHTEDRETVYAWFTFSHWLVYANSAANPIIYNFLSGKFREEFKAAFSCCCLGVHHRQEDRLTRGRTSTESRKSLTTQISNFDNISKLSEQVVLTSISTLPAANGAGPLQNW
Experiment: Assay B: In vitro testing of OX2R potency: OX2R IP1 (HTRF, CHO-K1/hOX2 cells, Orexin A as agonist)
Assay type: cell-based
Conditions: Orexin A 0.5 nM
Source text: Activation of the orexin receptors expressed in cell lines results in an increase in intracellular IP3 concentration. IP1, a downstream metabolite of IP3, accumulates in cells following receptor activation and is stable in the presence of LiCl. Using Homogeneous Time-Resolved Fluorescence technology with Lumi4-Tb cryptate (commercially available from Cisbio Bioassay.) and a suitable fluorescence plate reader. […] Chem. Genomics 2009, 3, 22-32. This technique is used to characterize pharmacological modification of the orexin receptors.
B. In Vitro Testing of OX2R Potency: OX2R IP1
IP1 measurements are performed in CHO-K1 cells stably expressing the full-length human orexin 2 receptor and the aequorin photoprotein. Cells are cultivated in Ham's nutrient mixture F12 medium with 10% fetal calf serum, in a 37° C., 95% humidity and 5% CO2 incubator. The CHO-K1/hOX2 cell mass is expanded to larger cell numbers. The cells are obtained as frozen cells in cryo-vials and stored until use at −150° C. The viability of the cells after thawing is >90%. In preparation for the assay, 24 hours before the assay, the cells are thawed at 37° C. and immediately diluted with cell culture medium. After centrifugation, the cell pellet is resuspended in medium and then distributed into the assay plates with a density of 5000 cells/25 μL per well. The plates are incubated for one hour at room temperature to reduce edge effects before they are incubated for 24 hours at 37° C./5% CO2. Compounds are prepared by a 8-point serial dilution in DMSO and a final dilution step into assay buffer (HBSS with 20 mM HEPES, 0.1% BSA and 50 mM LiCl, pH 7.4) to ensure a final DMSO concentration of 1% in the assay.
On the day of the assay, cells in the plate are washed twice with 60 μL assay buffer (20 μL buffer remained in the wells after washing), followed by adding 5 μL per well of compounds diluted in assay buffer. After 15 minutes of incubation at room temperature 5 μL per well of Orexin A peptide (final concentration: 0.5 nM) dissolved in assay buffer is added to the assay plate. The assay plate is incubated for 60 minutes at 37° C. Then 5 μL per well of Anti-IP1-Cryptate Tb solution and 5 μL per well of IP1-d2 dilution are added to all well of the plate and the plate is incubated for a further 60 minutes light protected at room temperature. The emission at 615 nm and 665 nm (Excitation wavelength: 320 nm) are measured using an EnVision reader (PerkinElmer). The ratio between the emission at 665 nm and 615 is calculated by the reader.
8-point four parametric non-linear curve fitting and determination of IC50 values and Hill slopes is performed using a regular analysis software e.g. AssayExplorer (Accelrys). In order to establish an agonist concentration independent parameter, Kb values are calculated using the following equation: IC50/((2+(A/EC50)n)^1/n−1) (with A=concentration agonist, EC50=EC50 agonist, n=Hill slope agonist) (see P. Leff, I. G. Dougall, Trends Pharmacol. Sci. 1993, 14(4), 110-112).
Kb values from Assay A (OX1R) and Assay B (OX2R) can then provide a selectivity ratio which is independent of the agonist (Orexin A) concentration.

| SMILES | Kb |
| --- | --- |
| CCN(C(=O)c1ccc(F)cc1-c1nnc(C)o1)[C@@H](C)COc1ccc(C(F)(F)F)cn1 [Example 14] | 2070 nM |
| CCN(C(=O)c1ccc(F)cc1-n1nccn1)[C@@H](C)COc1ccc(Cl)cn1 [Example 28] | 86 nM |
| CCN(C(=O)c1ccccc1-n1nccn1)[C@@H](C)COc1ccc(Cl)cn1 [Example 46] | 37 nM |
| CCN(C(=O)c1cccc(F)c1-n1nccn1)[C@@H](C)COc1ncc(C(F)(F)F)cc1Cl [Example 110] | 53 nM |
| CCN(C(=O)c1cc(F)ccc1-c1ncccn1)[C@@H](C)COc1ccc(Br)cn1 [Example 120] | 43 nM |
| CCN(C(=O)c1ccccc1-c1nnc(C)o1)[C@@H](C)COc1ccc(C(F)(F)F)cn1 [Example 22] | 202 nM |
| CCN(C(=O)c1ccccc1-c1ncccn1)[C@@H](C)COc1ccc(Br)cn1 [Example 117] | 35 nM |
| CCN(C(=O)c1cc(F)c(F)cc1-n1nccn1)[C@@H](C)COc1ccc(C(F)(F)F)cn1 [Example 4] | 138 nM |
| CCN(C(=O)c1cc(F)ccc1-n1nccn1)[C@@H](C)COc1ccc(Cl)cn1 [Example 29] | 71 nM |

Molecular target: T2, human Orexin 1 receptor (Homo sapiens, UniProt O43613)
T2 construct: stably expressing the full-length human Orexin 1 receptor; expressed in transfected cells; host or cells: CHO-K1 (CHO-K1/hOX1), co-expressing aequorin
T2 sequence (O43613 1-425): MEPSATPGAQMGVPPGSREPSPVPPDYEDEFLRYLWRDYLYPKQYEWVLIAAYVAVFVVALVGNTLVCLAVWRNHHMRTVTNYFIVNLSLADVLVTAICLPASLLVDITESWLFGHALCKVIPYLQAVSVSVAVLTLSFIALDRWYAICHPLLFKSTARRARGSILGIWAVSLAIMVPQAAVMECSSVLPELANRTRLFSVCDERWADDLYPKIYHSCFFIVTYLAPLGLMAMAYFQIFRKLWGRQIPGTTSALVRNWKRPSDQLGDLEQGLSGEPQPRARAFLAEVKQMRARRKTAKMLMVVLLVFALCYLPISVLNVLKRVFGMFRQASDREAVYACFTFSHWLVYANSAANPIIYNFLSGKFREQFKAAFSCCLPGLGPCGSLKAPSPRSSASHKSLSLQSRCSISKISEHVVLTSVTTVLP
Experiment: Assay A: In vitro testing of OX1R potency: OX1R IP1 (HTRF, CHO-K1/hOX1 cells, Orexin A as agonist)
Assay type: cell-based
Conditions: OX1R Kb at 0.5 nM Orexin A

| SMILES | OX2R Kb/OX1R Kb |
| --- | --- |
| CCN(C(=O)c1ccc(F)cc1-c1nnc(C)o1)[C@@H](C)COc1ccc(C(F)(F)F)cn1 [Example 14] | 461 |
| CCN(C(=O)c1cc(F)ccc1-c1ncccn1)[C@@H](C)COc1ccc(Br)cn1 [Example 120] | 165 |
| CCN(C(=O)c1ccccc1-c1nnc(C)o1)[C@@H](C)COc1ccc(C(F)(F)F)cn1 [Example 22] | 217 |
| CCN(C(=O)c1ccccc1-c1ncccn1)[C@@H](C)COc1ccc(Br)cn1 [Example 117] | 194 |
| CCN(C(=O)c1cc(F)c(F)cc1-n1nccn1)[C@@H](C)COc1ccc(C(F)(F)F)cn1 [Example 4] | 276 |
| CCN(C(=O)c1cc(F)ccc1-n1nccn1)[C@@H](C)COc1ccc(Cl)cn1 [Example 29] | 71 |

Same assay, conditions: OX1R Kb at 0.5 nM and 50 nM Orexin A

| SMILES | OX2R Kb/OX1R Kb |
| --- | --- |
| CCN(C(=O)c1ccc(F)cc1-n1nccn1)[C@@H](C)COc1ccc(Cl)cn1 [Example 28] | 51 |

Same assay, conditions: OX1R Kb at 50 nM Orexin A

| SMILES | OX2R Kb/OX1R Kb |
| --- | --- |
| CCN(C(=O)c1ccccc1-n1nccn1)[C@@H](C)COc1ccc(Cl)cn1 [Example 46] | 56 |
| CCN(C(=O)c1cccc(F)c1-n1nccn1)[C@@H](C)COc1ncc(C(F)(F)F)cc1Cl [Example 110] | 312 |
| CCN(C(=O)c1cc(F)ccc1-c1ncccn1)[C@@H](C)COc1ccc(Br)cn1 [Example 120] | 358 |
| CCN(C(=O)c1ccccc1-c1nnc(C)o1)[C@@H](C)COc1ccc(C(F)(F)F)cn1 [Example 22] | 168 |
| CCN(C(=O)c1ccccc1-c1ncccn1)[C@@H](C)COc1ccc(Br)cn1 [Example 117] | 318 |
| CCN(C(=O)c1cc(F)c(F)cc1-n1nccn1)[C@@H](C)COc1ccc(C(F)(F)F)cn1 [Example 4] | 187 |
| CCN(C(=O)c1cc(F)ccc1-n1nccn1)[C@@H](C)COc1ccc(Cl)cn1 [Example 29] | 81 |

Same assay, conditions: Orexin A 0.5 nM and 50 nM; read-out: OX1R Kb (Orexin A concentration used)

| SMILES | Kb |
| --- | --- |
| CCN(C(=O)c1ccc(F)cc1-n1nccn1)[C@@H](C)COc1ccc(Cl)cn1 [Example 28] | 1.7 nM |

Same assay, conditions: Orexin A 0.5 nM; read-out: OX1R Kb (Orexin A concentration used)

| SMILES | Kb |
| --- | --- |
| CCN(C(=O)c1ccc(F)cc1-c1nnc(C)o1)[C@@H](C)COc1ccc(C(F)(F)F)cn1 [Example 14] | 4.5 nM |
| CCN(C(=O)c1cc(F)ccc1-c1ncccn1)[C@@H](C)COc1ccc(Br)cn1 [Example 120] | 0.26 nM |
| CCN(C(=O)c1ccccc1-c1nnc(C)o1)[C@@H](C)COc1ccc(C(F)(F)F)cn1 [Example 22] | 0.93 nM |
| CCN(C(=O)c1ccccc1-c1ncccn1)[C@@H](C)COc1ccc(Br)cn1 [Example 117] | 0.18 nM |
| CCN(C(=O)c1cc(F)c(F)cc1-n1nccn1)[C@@H](C)COc1ccc(C(F)(F)F)cn1 [Example 4] | 0.5 nM |
| CCN(C(=O)c1cc(F)ccc1-n1nccn1)[C@@H](C)COc1ccc(Cl)cn1 [Example 29] | 1 nM |

Same assay, conditions: Orexin A 50 nM; read-out: OX1R Kb (Orexin A concentration used)

| SMILES | Kb |
| --- | --- |
| CCN(C(=O)c1ccccc1-n1nccn1)[C@@H](C)COc1ccc(Cl)cn1 [Example 46] | 0.66 nM |
| CCN(C(=O)c1cccc(F)c1-n1nccn1)[C@@H](C)COc1ncc(C(F)(F)F)cc1Cl [Example 110] | 0.17 nM |
| CCN(C(=O)c1cc(F)ccc1-c1ncccn1)[C@@H](C)COc1ccc(Br)cn1 [Example 120] | 0.12 nM |
| CCN(C(=O)c1ccccc1-c1nnc(C)o1)[C@@H](C)COc1ccc(C(F)(F)F)cn1 [Example 22] | 1.2 nM |
| CCN(C(=O)c1ccccc1-c1ncccn1)[C@@H](C)COc1ccc(Br)cn1 [Example 117] | 0.11 nM |
| CCN(C(=O)c1cc(F)c(F)cc1-n1nccn1)[C@@H](C)COc1ccc(C(F)(F)F)cn1 [Example 4] | 0.74 nM |
| CCN(C(=O)c1cc(F)ccc1-n1nccn1)[C@@H](C)COc1ccc(Cl)cn1 [Example 29] | 0.88 nM |

Tested on: not listed separately
Experiment: Assay C: Metabolic stability in human liver microsomes (Human MST)
Assay type: in vitro ADME
Conditions: pooled human liver microsomes, pH 7.6; human liver microsomes 1 mg/mL, compound 1 μM, 37° C., NADPH; read-out: Human MST t1/2
Protocol: C. Assessment of Metabolic Stability in Human Liver Microsomes (Human MST)
The metabolic stability of the compounds according to the invention may be investigated as follows:
The metabolic degradation of the test compound is assayed at 37° C. with pooled human liver microsomes. The final incubation volume of 100 μL per time point contains TRIS buffer pH 7.6 at room temperature (0.1 M), MgCl2 (5 mM), microsomal protein (1 mg/mL) and the test compound at a final concentration of 1 μM. Following a short pre-incubation period at 37° C., the reactions are initiated by addition of beta-nicotinamide adenine dinucleotide phosphate, reduced form (NADPH, 1 mM), and terminated by transferring an aliquot into solvent after different time points. After centrifugation (10000 g, 5 min), an aliquot of the supernatant is assayed by LC-MS/MS for the amount of parent compound. The half-life (t1/2) is determined by the slope of the semi-logarithmic plot of the concentration-time profile.

| SMILES | half-life at 1 μM |
| --- | --- |
| CCN(C(=O)c1ccc(F)cc1-c1nnc(C)o1)[C@@H](C)COc1ccc(C(F)(F)F)cn1 [Example 14] | > 130 min |
| CCN(C(=O)c1ccc(F)cc1-n1nccn1)[C@@H](C)COc1ccc(Cl)cn1 [Example 28] | 39 min |
| CCN(C(=O)c1ccccc1-n1nccn1)[C@@H](C)COc1ccc(Cl)cn1 [Example 46] | 35 min |
| CCN(C(=O)c1cccc(F)c1-n1nccn1)[C@@H](C)COc1ncc(C(F)(F)F)cc1Cl [Example 110] | 100 min |
| CCN(C(=O)c1cc(F)ccc1-c1ncccn1)[C@@H](C)COc1ccc(Br)cn1 [Example 120] | 76 min |
| CCN(C(=O)c1ccccc1-c1nnc(C)o1)[C@@H](C)COc1ccc(C(F)(F)F)cn1 [Example 22] | 84 min |
| CCN(C(=O)c1ccccc1-c1ncccn1)[C@@H](C)COc1ccc(Br)cn1 [Example 117] | 32 min |
| CCN(C(=O)c1cc(F)c(F)cc1-n1nccn1)[C@@H](C)COc1ccc(C(F)(F)F)cn1 [Example 4] | 61 min |
| CCN(C(=O)c1cc(F)ccc1-n1nccn1)[C@@H](C)COc1ccc(Cl)cn1 [Example 29] | 55 min |
